Source: patent publication US9585393B2, “Saflufenacil, flumioxazin, and 2,4-D weed control compositions and methods of use thereof” (Valent U.S.A., Corporation, priority 2014, dated 2017)

Legend:
Palmer Amaranth = test: Field test, post emergence weed control: Palmer Amaranth; assay type: in vivo, Amaranthus palmeri; settings: 12 DAT, MSO 1% v/v
Method: (§1) The following field test was conducted during spring in Mississippi. Sharpen® was used in the test as the source of saflufenacil. Valor® was used in the test as the source of flumioxazin. Roundup Ready soybeans (Glycine max) were used in the test as the crop plant. All of the treatments contained MSO concentrate oil at 1% v/v.
(§2) When the test began, the test plot had Horseweed that was 6 to 20 inches tall. Applications were administered at the concentrations as follows. Saflufenacil was administered at 0.011, 0.017 or 0.022 lb ai/acre (indicated in the table as “S” followed by the amount). Flumioxazin was administered at 0.064 lb ai/acre, and 2,4-D was administered at 0.5 lb ai/acre throughout the experiment. Three days after the treatment (3 DAT), soybeans were planted across the front of the plot. On 7 DAT, another pass of soybeans was planted across the front of the plot with a 30 inch planter. Each test was
(§3) On 11 DAT, readings were taken to determine the survival of Horseweed and Crabgrass. On 12 DAT, readings were taken to determine the survival of Palmer Amaranth, Broadleaf Signalgrass, Common Barnyardgrass, Yellow Nutsedge, and Eclipta. Survival ratings were taken by counting the number of alive and dead plants at the time of the reading. The pytotoxicity of each treatment was also evaluated by examining the soybeans at 11 and 12 DAT. All data was analyzed using Bartlett's test and with p value of […] for determining significance of the results. The Effect of Saflufenacil, Flumioxazin and 2,4-D on Weeds.”

Horseweed = test: Field test, post emergence weed control: Horseweed; assay type: in vivo, Conyza Canadensis; settings: for Effect on Weeds, Plants: Horseweed: 11 DAT, MSO 1% v/v; for control (Actual % Control) / % Alone: Horseweed; for control (Actual % Control): rounded Table 1 values, saflufenacil 0.011, flumioxazin 0.064, 2,4-D 0.5 lb ai/acre as present; for % Alone: synergy calculation, each component alone (saflufenacil 0.011, 2,4-D 0.5, flumioxazin 0.064 lb ai/acre)
Method: as §1, §2, §3
Applicants used the widely accepted fraction method for determining synergy. The fraction method involves not merely adding together the individual control percentages together, as that will often be greater than 100%. The fraction method involves taking the control as a decimal value (X), multiplying the 1 minus X values together, then taking the “1 minus” value to get the calculated control as a decimal value. For example, if two products give 60% control, the additive or predicted value would be 84% and not 120%. See Rao, V. S., Principles of Weed Science, Second Edition, (2000) 351-352, and the illustrative example below.

Yellow Nutsedge = test: Field test, post emergence weed control: Yellow Nutsedge; assay type: in vivo, Cyperus esculentus; settings: 12 DAT, MSO 1% v/v
Method: as §1, §2, §3

Broadleaf Signalgrass = test: Field test, post emergence weed control: Broadleaf Signalgrass; assay type: in vivo, Brachiaria platyhylla; settings: 12 DAT, MSO 1% v/v
Method: as §1, §2, §3

Large Crabgrass = test: Field test, post emergence weed control: Large Crabgrass; assay type: in vivo, Digitaria sanguinalis; settings: 11 DAT, MSO 1% v/v
Method: as §1, §2, §3

Common Barnyardgrass = test: Field test, post emergence weed control: Common Barnyardgrass; assay type: in vivo, Echinochloa crus-galli; settings: 12 DAT, MSO 1% v/v
Method: as §1, §2, §3

Eclipta = test: Field test, post emergence weed control: Eclipta; assay type: in vivo, Eclipta prostrata; settings: 12 DAT, MSO 1% v/v
Method: as §1, §2, §3

[1] = no saflufenacil, flumioxazin 0.064 lb ai/acre, 2,4-D 0.5 lb ai/acre
[2] = saflufenacil 0.011 lb ai/acre (flumioxazin 0.064, 2,4-D 0.5 lb ai/acre where in the treatment)
[3] = saflufenacil 0.017 lb ai/acre (flumioxazin 0.064, 2,4-D 0.5 lb ai/acre where in the treatment)
[4] = saflufenacil 0.022 lb ai/acre (flumioxazin 0.064, 2,4-D 0.5 lb ai/acre where in the treatment)

Structure (SMILES): O=C(O)COc1ccc(Cl)cc1Cl [2,4-D, 2,4-Dichlorophenoxyacetic acid]
- Effect on Weeds, Plants: Palmer Amaranth (Palmer Amaranth; [1]): 91.0
- Effect on Weeds, Plants: Horseweed (Horseweed; [1]): 11.7
- control (Actual % Control) (Horseweed): 12%
- % Alone (Horseweed): 12.00%
- Effect on Weeds, Plants: Yellow Nutsedge (Yellow Nutsedge; [1]): 8.3
- Effect on Weeds, Plants: Broadle Signalgrass (Broadleaf Signalgrass; [1]): 21.7
- Effect on Weeds, Plants: Large Crabgrass (Large Crabgrass; [1]): 50.0
- Effect on Weeds, Plants: Common Barnyardgrass (Common Barnyardgrass; [1]): 15.0
- Effect on Weeds, Plants: Eclipta (Eclipta; [1]): 91.0

Structure (SMILES): C#CCN1C(=O)COc2cc(F)c(N3C(=O)C4=C(CCCC4)C3=O)cc21 [Flumioxazin, 2-[7-fluoro-3,4-dihydro-3-oxo-4-(2-propynyl)-2H-1,4-benzoxazin-6-yl]-4,5,6,7-tetrahydro-1H-isoindole-1,3(2H)-dione]
- Effect on Weeds, Plants: Palmer Amaranth (Palmer Amaranth; [1]): 96.0
- Effect on Weeds, Plants: Horseweed (Horseweed; [1]): 15.0
- control (Actual % Control) (Horseweed): 15%
- % Alone (Horseweed): 15.00%
- Effect on Weeds, Plants: Yellow Nutsedge (Yellow Nutsedge; [1]): 42.5
- Effect on Weeds, Plants: Broadle Signalgrass (Broadleaf Signalgrass; [1]): 45.0
- Effect on Weeds, Plants: Large Crabgrass (Large Crabgrass; [1]): 70.0
- Effect on Weeds, Plants: Common Barnyardgrass (Common Barnyardgrass; [1]): 45.0
- Effect on Weeds, Plants: Eclipta (Eclipta; [1]): 86.3

Structure (SMILES): CC(C)N(C)S(=O)(=O)NCc1cc(-n2c(=O)cc(C(F)(F)F)n(C)c2=O)c(F)cc1Cl [S, N′-[2-chloro-4-fluoro-5-(3-methyl-2,6-dioxo-4-(trifluoromethyl)-3,6-dihydro-1(2H)-pyrimidinyl)benzyl]-N-isopropyl-N-methylsulfamide]
- Effect on Weeds, Plants: Palmer Amaranth (Palmer Amaranth; [2]): 91.0
- Effect on Weeds, Plants: Palmer Amaranth (Palmer Amaranth; [3]): 91.3
- Effect on Weeds, Plants: Palmer Amaranth (Palmer Amaranth; [4]): 96.0
- Effect on Weeds, Plants: Horseweed (Horseweed; [2]): 66.7
- Effect on Weeds, Plants: Horseweed (Horseweed; [3]): 78.3
- Effect on Weeds, Plants: Horseweed (Horseweed; [4]): 86.7
- control (Actual % Control) (Horseweed): 67%
- % Alone (Horseweed): 67.00%
- Effect on Weeds, Plants: Yellow Nutsedge (Yellow Nutsedge; [2]): 23.3
- Effect on Weeds, Plants: Yellow Nutsedge (Yellow Nutsedge; [3]): 35.0
- Effect on Weeds, Plants: Yellow Nutsedge (Yellow Nutsedge; [4]): 30.0
- Effect on Weeds, Plants: Broadle Signalgrass (Broadleaf Signalgrass; [2]): 31.7
- Effect on Weeds, Plants: Broadle Signalgrass (Broadleaf Signalgrass; [3]): 45.0
- Effect on Weeds, Plants: Broadle Signalgrass (Broadleaf Signalgrass; [4]): 31.7
- Effect on Weeds, Plants: Large Crabgrass (Large Crabgrass; [2]): 43.3
- Effect on Weeds, Plants: Large Crabgrass (Large Crabgrass; [3]): 60.0
- Effect on Weeds, Plants: Large Crabgrass (Large Crabgrass; [4]): 56.7
- Effect on Weeds, Plants: Common Barnyardgrass (Common Barnyardgrass; [2]): 31.7
- Effect on Weeds, Plants: Common Barnyardgrass (Common Barnyardgrass; [3]): 41.7
- Effect on Weeds, Plants: Common Barnyardgrass (Common Barnyardgrass; [4]): 25.0
- Effect on Weeds, Plants: Eclipta (Eclipta; [2]): 83.0
- Effect on Weeds, Plants: Eclipta (Eclipta; [3]): 91.3
- Effect on Weeds, Plants: Eclipta (Eclipta; [4]): 93.0
